Article PMC4427492, “The Repellent DEET Potentiates Carbamate Effects via Insect Muscarinic Receptor Interactions: An Alternative Strategy to Control Insect Vector-Borne Diseases” (PLoS ONE, 2015)

Legend:
[1] = test system: acetylcholinesterase (AChE); experiment: Ellman spectrophotometric AChE activity assay on DUM neuron suspension; format: cell-based, Periplaneta americana
[2] = target: T1, human M3 muscarinic acetylcholine receptor (hM3 mAChR) (Homo sapiens, UniProt P20309); experiment: [3H]NMS radioligand displacement; also antagonism of CCh-induced calcium mobilization; format: binding
T1 construct: gene CHRM3; membranes of CHO cells stably expressing human M3
T1 sequence (P20309 whole entry): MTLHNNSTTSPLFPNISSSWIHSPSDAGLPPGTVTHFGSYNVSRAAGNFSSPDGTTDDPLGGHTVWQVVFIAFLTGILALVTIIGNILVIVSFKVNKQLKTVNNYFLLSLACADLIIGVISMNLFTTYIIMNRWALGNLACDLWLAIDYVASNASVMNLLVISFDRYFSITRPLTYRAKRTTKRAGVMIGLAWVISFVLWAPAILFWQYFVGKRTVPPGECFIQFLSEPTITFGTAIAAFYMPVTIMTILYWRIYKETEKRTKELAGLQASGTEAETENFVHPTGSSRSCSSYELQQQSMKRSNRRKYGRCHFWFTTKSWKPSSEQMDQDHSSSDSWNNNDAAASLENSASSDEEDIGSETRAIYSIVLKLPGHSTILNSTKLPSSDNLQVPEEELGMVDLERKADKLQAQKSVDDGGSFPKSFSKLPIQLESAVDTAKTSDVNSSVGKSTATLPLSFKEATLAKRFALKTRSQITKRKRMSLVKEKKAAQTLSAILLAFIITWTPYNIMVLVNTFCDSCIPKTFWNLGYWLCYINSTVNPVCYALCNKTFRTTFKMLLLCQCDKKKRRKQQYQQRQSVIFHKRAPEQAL

[3] = target: T2, human M1 muscarinic acetylcholine receptor (hM1 mAChR) (Homo sapiens, UniProt P11229); experiment: as above; format: binding
T2 construct: gene CHRM1; membranes of CHO cells stably expressing human M1
T2 sequence (P11229 1-460): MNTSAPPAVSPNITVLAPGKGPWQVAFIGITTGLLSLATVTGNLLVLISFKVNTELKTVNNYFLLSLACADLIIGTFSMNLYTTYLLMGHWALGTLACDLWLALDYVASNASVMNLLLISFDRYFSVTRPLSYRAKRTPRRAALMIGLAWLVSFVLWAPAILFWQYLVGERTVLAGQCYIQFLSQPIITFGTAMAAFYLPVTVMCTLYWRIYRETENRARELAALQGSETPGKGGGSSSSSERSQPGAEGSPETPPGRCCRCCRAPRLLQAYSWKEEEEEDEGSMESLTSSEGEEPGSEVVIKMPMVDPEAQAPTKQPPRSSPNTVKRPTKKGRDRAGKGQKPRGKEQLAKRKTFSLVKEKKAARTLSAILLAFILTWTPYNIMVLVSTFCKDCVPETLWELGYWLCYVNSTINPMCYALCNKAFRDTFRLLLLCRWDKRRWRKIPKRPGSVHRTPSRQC
Description: [3H]NMS radioligand displacement; also antagonism of CCh-induced calcium mobilization on human M1 muscarinic acetylcholine receptor (hM1 mAChR) | DEET displaced the [^3H]N-Methyl Scopolamine (NMS) binding from M1 and M3 mAChRs but only in the millimolar range

Structure (SMILES) | IC50 [1] | Ki [2] | Ki [3]
CNC(=O)Oc1ccccc1OC(C)C [propoxur, 2-isopropoxyphenylmethylcarbamate] | 0.02 µM |  | 
CCN(CC)C(=O)c1cccc(C)c1 [DEET, N,N-Diethyl-3-methylbenzamide] |  | 370 ± 20 µM | 690 ± 190 µM
